In one test the test system is U266. Briefly: Cytotoxicity of EA in tumor cell line U266. Type of test: cell-based. Conditions: Homo sapiens, U-266, mean of at least two experiments.
Another test deals with HepG2. Briefly: Cytotoxicity of EA in tumor cell line HepG2. Type of test: cell-based. Conditions: Homo sapiens, mean of at least two experiments.
For a further test, the system named is RAMOS. Briefly: Cytotoxicity of EA in tumor cell line RAMOS. It counts as cell-based. Conditions: Homo sapiens, mean of at least two experiments.
The next test concerns SW480. Briefly: Cytotoxicity of EA in tumor cell line SW480. Type of test: cell-based. Particulars: Homo sapiens, mean of at least two experiments.
For the next test, the target named is T1, LEF-1 (Homo sapiens, UniProt Q9UJU2).
T1 construct: endogenous in cells; host or cells: primary CLL cells from patients; SW480 cells
T1 sequence (Q9UJU2 whole entry): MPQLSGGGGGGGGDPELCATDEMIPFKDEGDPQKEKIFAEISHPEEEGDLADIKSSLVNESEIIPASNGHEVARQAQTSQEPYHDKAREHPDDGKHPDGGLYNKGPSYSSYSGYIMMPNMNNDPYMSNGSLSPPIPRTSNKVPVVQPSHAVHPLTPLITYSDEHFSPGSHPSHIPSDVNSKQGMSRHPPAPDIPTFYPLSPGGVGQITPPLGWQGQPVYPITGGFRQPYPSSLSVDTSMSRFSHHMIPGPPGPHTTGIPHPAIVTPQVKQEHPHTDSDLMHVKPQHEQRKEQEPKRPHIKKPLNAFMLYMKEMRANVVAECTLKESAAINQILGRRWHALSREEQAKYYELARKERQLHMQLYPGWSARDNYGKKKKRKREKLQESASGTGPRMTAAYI
Put plainly: Immunoprecipitation and immunoblotting with anti-EA antibody: LEF-1. It counts as binding. How it is done: (§1) FIG. 6. EA binds to LEF-1 in primary CLL and SW480 cells. (A) lysates from CLL cells exposed to 10 μM EA for 8 hours or 24 hours were immunoprecipitated with anti-LEF-1 antibody. The immune complexes were analyzed by immunoblotting with anti-LEF-1 and anti-EA antibodies. (B) SW480 cells were treated with indicated amounts of EA for 16 hours. Cell lysates were immunoprecipitated with anti-β-catenin antibody (Santa Cruz Biotechnology, Santa Cruz, Calif.). The immune complexes were analyzed by immunoblotting with anti-EA and anti-β-catenin antibodies. (C) SW480 cells were exposed to 50 μM of EA for 16 hours and cell lysates were immunoprecipitated with anti-β-catenin antibody. The proteins in the immunoprecipitates were resolved by SDS-PAGE, transferred, and probed with indicated antibodies.
(§2) A conjugate of EA with Keyhole Limpet Hemocyanin (KLH, Sigma) was prepared by thiolation of KLH with N-succinimidyl S-acetylthioacetate (SATA), followed by allowing the SATA-KLH conjugate to form a Michael adduct with EA, as described in Hermanson (1996). Immunization of rabbits was performed by three 1 mL subcutaneous injections of approximately 0.4 mg EA-KLH conjugates. Complete Freund's adjuvant was used for the first injection. The second and third injections were performed 3 and 6 weeks after the first, using incomplete adjuvant. […]
A general note: A western blot detects proteins with antibodies after separation by electrophoresis.

In the next test the test system is PC3. Put plainly: Cytotoxicity of EA in tumor cell line PC3. It counts as cell-based. Particulars: Homo sapiens, PC-3, mean of at least two experiments.
For the next test, the system named is LNCap. Put plainly: Cytotoxicity of EA in tumor cell line LNCap. Particulars: Homo sapiens, mean of at least two experiments. It counts as cell-based.
In a further test the test system is SK-Mel-28. Put plainly: Cytotoxicity of EA in tumor cell line SK-Mel-28. It counts as cell-based. Particulars: Homo sapiens, mean of at least two experiments.
Another test relates to Normal PBMC. Put plainly: Cell viability assay (MTT) with normal peripheral blood mononuclear cells. Type of test: cell-based, human. Particulars: Homo sapiens; Normal PBMC from five normal individuals; 48 hours; mean.
A further test deals with MCF-7. Put plainly: Cytotoxicity of EA in tumor cell line MCF-7. Conditions: Homo sapiens, MCF7, mean of at least two experiments. It counts as cell-based.
The next test has as its target T2, β-catenin (Homo sapiens, UniProt P35222).
T2 construct: endogenous in cells
Put plainly: Immunoprecipitation and immunoblotting with anti-EA antibody: β-catenin. Type of test: binding. The protocol:
as §1, §2

In the next test the test system is HCT116. Briefly: Cytotoxicity of EA in tumor cell line HCT116. It counts as cell-based. Particulars: Homo sapiens, HCT-116, mean of at least two experiments.
The test system of a further test is FOPflash reporter. Put plainly: FOPflash reporter assay in HEK293 cells. It counts as cell-based, human. Conditions: 50 μM EA, 24 hours. How it is done: FIG. 1. Inhibition of Wnt/β-catenin signaling by EA. […] Cells were lysed and luciferase activity was quantified. Total protein levels were determined by Bradford Assay and serve as a control for total cell number. (B) HEK293 cells were co-transfected with TOPflash reporter construct, along with expression plasmids for Wnt1, Wnt3, LRP6, Dvl and β-catenin as indicated. […] (C) HEK293 cells were transfected with FOPflash reporter with or without an expression plasmid for β-catenin. […] (D) HEK293 cells were transfected with NFAT reporter and expression plasmid for NFATc. […] The results are expressed as fold induction of luciferase activity compared to the basal level, and are the means of three experiments±SEM. For screening of the drug library, HEK293 cells were grown for at least 24 hours in 10 cm plates prior to transfection. At 50% confluence, cells were transfected with 5 μg of TOPflash reporter, 1 μg expression vector for Dvl, 1 μg of control plasmid pCMXβgal and carrier DNA pcDNA3 plasmid for a total of 10 μg/plate. After transfection for 24 hours, cells were harvested and dispersed in 96-well microtiter plates. […] Then luciferase values were determined. In the Results section, data are expressed as fold stimulation of luciferase activity compared to the basal level. […]
On the technique in general: In a reporter assay the amount or activity of a reporter protein is the signal.

The IC50 is the concentration needed to halve the response being measured. Higher therefore signals weaker potency.

T2 sequence (P35222 whole entry): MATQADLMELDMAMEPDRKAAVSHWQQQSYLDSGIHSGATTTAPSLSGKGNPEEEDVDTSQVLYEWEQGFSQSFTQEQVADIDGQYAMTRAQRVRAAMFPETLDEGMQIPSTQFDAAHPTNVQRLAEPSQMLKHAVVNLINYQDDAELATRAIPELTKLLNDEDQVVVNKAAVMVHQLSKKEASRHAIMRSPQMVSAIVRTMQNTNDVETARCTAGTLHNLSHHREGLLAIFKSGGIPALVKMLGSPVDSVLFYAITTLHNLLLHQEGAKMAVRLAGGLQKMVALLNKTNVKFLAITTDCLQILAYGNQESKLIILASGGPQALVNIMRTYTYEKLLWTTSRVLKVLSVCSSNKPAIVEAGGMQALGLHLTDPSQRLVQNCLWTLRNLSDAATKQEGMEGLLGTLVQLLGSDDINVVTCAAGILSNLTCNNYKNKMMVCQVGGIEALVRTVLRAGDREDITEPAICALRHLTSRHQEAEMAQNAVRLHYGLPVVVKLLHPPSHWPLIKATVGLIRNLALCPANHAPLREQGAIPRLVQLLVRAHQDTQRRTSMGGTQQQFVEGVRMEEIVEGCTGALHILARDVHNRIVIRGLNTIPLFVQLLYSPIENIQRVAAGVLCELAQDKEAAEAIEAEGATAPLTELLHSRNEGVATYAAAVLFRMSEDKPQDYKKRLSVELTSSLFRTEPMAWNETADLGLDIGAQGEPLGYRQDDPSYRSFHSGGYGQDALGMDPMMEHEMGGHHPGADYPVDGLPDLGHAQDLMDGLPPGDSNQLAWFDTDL

With `C=C(CC)C(=O)c1ccc(OCC(=O)O)c(Cl)c1Cl` [Compound 1, Ethacrynic acid], the IC50 worked out at 90 µM with U266; 223 µM in the test on HepG2; 174 µM with RAMOS; 68 µM in the test with SW480; 67 µM in the test on PC3; 46 µM in the test on LNCap. The IC50 with SK-Mel-28 stood at 122 µM; in the test with Normal PBMC, 34.8 µM; in the test on MCF-7, 63 µM; in the test with HCT116, 58 µM. Moreover, the “reaction of immunoprecipitated LEF-1 with anti-EA antibody” value at LEF-1 (CLL lysates, EA 10 μM, 8 hours and 24 hours) is on record as “reacted strongly with the anti-EA antibody”. For the same compound, at LEF-1 (SW480 cells, 50 μM EA, 16 hours, anti-β-catenin immunoprecipitate), the “staining of the LEF-1 band with anti-EA antibody” value was “stained positive with the anti-EA antibody only in the drug treated samples”. The “binding to β-catenin” value at β-catenin (CLL extracts, data not shown) is “did not bind detectably”. Besides, the “detection of precipitated β-catenin by anti-EA antibody” value on β-catenin (SW480 cells, 16 hours) is “could not be detected by anti-EA antibody”. In addition, the “effect on the FOPflash reporter” value with FOPflash reporter is recorded as “no effect”.
